Laboratory results: ChEMBL document CHEMBL5241087, “A review on the structures and biological activities of anti-Helicobacter pylori agents” (Eur J Med Chem, 2021)
Converted amounts (≈) assume the structure as drawn. Blank lines part the entries; values can stand above or below the molecule they belong to.

Assays:
Helicobacter pylori [1] = assay: Antimicrobial activity against Helicobacter pylori assessed as inhibition of bacterial growth incubated for 72 hrs by broth dilution method; assay type: functional
Helicobacter pylori [2] = assay: Antibacterial activity against Helicobacter pylori; assay type: functional
Helicobacter pylori [3] = assay: Antibacterial activity against Helicobacter pylori assessed as bacterial growth inhibition; assay type: functional
[4] = Inhibition of Helicobacter pylori GatCAB assessed as inhibition constant
[5] = Inhibition of Helicobacter pylori IMPDH incubated for 10 mins by multilabel reader analysis
Helicobacter pylori [6] = assay: Antimicrobial activity against Helicobacter pylori EP1757 assessed as inhibition of bacterial growth; assay type: functional
Helicobacter pylori [7] = assay: Antimicrobial activity against Helicobacter pylori EP1836 assessed as inhibition of bacterial growth; assay type: functional
[8] = biological target: T1, Aminodeoxyfutalosine nucleosidase (Helicobacter pylori (strain J99 / ATCC 700824) (Campylobacter pylori J99), UniProt Q9ZMY2); assay: Inhibition of Helicobacter pylori MTAN assessed as dissociation constant
T1 sequence (Q9ZMY2 whole entry): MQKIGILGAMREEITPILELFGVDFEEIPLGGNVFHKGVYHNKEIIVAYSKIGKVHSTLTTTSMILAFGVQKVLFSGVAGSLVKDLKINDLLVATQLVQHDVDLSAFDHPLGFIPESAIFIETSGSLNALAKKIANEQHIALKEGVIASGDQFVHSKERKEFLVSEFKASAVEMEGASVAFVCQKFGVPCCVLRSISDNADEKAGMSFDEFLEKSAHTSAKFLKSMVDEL

[9] = Inhibition of urease (unknown origin)
[10] = Inhibition of Helicobacter pylori IMPDH
[11] = Antioxidant activity assessed as radical scavenging activity; assay type: functional
Helicobacter pylori [12] = assay: Antibacterial activity against metronidazole-resistant Helicobacter pylori assessed as diameter of zone inhibition at 16 to 32 ug per disk incubated for 2 to 10 days by disk diffusion assay; assay type: functional; details: dose 16-32 µg; time 2-10 day
Helicobacter pylori [13] = assay: Antibacterial activity against Helicobacter pylori SS1 assessed as reduction in bacterial growth by broth microdilution method; assay type: functional
Helicobacter pylori [14] = assay: Antibacterial activity against Helicobacter pylori P12 assessed as reduction in bacterial growth by broth microdilution method; assay type: functional
Helicobacter pylori [15] = assay: Antibacterial activity against Helicobacter pylori assessed as diameter of zone inhibition at 12.5 to 100 ug per disk incubated for […] by disk diffusion assay; assay type: functional; details: dose 12.5-100 µg
Helicobacter pylori [16] = assay: Antibacterial activity against Helicobacter pylori assessed as diameter of zone inhibition at 25 to 100 ug per disk incubated for […] by disk diffusion assay; assay type: functional; details: dose 25-100 µg
Helicobacter pylori [17] = assay: Antimicrobial activity against Helicobacter pylori KA05 assessed as inhibition of bacterial growth by broth dilution method; assay type: functional
Helicobacter pylori [18] = assay: Antibacterial activity against metronidazole-resistant Helicobacter pylori assessed as inhibition zone at 50 ug per disk by paper disk diffusion assay; assay type: functional; details: read-out: IZ
Glutamate racemase = biological target: T2, Glutamate racemase (Helicobacter pylori J99, UniProt Q9ZLT0); assay: Inhibition of Helicobacter pylori Glutamate racemase
T2 sequence (Q9ZLT0 whole entry): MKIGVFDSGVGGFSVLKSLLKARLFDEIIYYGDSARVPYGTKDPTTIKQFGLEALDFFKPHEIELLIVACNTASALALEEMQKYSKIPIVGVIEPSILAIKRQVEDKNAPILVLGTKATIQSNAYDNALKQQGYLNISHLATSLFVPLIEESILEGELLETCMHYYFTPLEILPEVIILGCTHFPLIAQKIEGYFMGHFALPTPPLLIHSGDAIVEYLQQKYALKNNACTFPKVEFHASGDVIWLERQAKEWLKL

Helicobacter pylori [19] = assay: Antibacterial activity against wild type Helicobacter pylori; assay type: functional
Helicobacter pylori [20] = assay: Antibacterial activity against Helicobacter pylori ATCC 43504 assessed as bacterial growth inhibition; assay type: functional
Helicobacter pylori [21] = assay: Antibacterial activity against metronidazole-resistant Helicobacter pylori incubated for 72 hrs; assay type: functional
[22] = Plasma protein binding in human; assay type: ADME, cell-free; details: read-out: PPB (converted)
Helicobacter pylori [23] = assay: Antibacterial activity against metronidazole-resistant Helicobacter pylori assessed as diameter of zone inhibition at 12.5 to 100 ug per disk by paper disk diffusion assay; assay type: functional; details: dose 12.5-100 µg
[24] = Inhibition of Helicobacter pylori IMPDH incubated for 10 mins in presence of […] by multilabel reader analysis
Helicobacter pylori [25] = assay: Inhibition of Helicobacter pylori IMPDH at 10 uM incubated for 10 mins in presence of […] by multilabel reader analysis relative to control
[26] = biological target: Inosine-5'-monophosphate dehydrogenase 2 (Homo sapiens) (UniProt P12268); assay: Inhibition of human IMPDH at 10 uM incubated for 10 mins by multilabel reader analysis relative to control
Helicobacter pylori [27] = assay: Antibacterial activity against clinical isolate Helicobacter pylori assessed as bacterial growth inhibition incubated for 72 hrs by agar dilution method; assay type: functional
Helicobacter pylori [28] = assay: Antibacterial activity against metronidazole-resistant Helicobacter pylori ATCC 43504; assay type: functional, organism-based

Sequence of Inosine-5'-monophosphate dehydrogenase 2 (Homo sapiens) (P12268 2-514 limits assumed): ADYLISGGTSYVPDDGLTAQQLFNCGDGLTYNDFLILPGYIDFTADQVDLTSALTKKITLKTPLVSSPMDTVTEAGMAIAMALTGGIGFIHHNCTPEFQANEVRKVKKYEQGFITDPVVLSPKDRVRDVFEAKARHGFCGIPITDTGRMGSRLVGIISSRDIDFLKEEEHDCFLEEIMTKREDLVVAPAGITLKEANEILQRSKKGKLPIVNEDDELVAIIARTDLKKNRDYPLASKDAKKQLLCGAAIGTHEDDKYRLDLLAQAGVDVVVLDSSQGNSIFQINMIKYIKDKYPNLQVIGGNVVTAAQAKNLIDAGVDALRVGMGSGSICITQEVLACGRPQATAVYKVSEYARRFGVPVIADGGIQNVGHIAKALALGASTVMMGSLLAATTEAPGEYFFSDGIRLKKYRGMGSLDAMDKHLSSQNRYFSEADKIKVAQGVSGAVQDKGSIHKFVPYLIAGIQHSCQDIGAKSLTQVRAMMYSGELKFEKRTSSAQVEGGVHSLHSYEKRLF

- MIC (Helicobacter pylori [2]): 250 µg/mL (≈ 898 µM)
SMILES: CCCCCCCOC(=O)/C=C/c1ccc(O)c(O)c1

- Ki [4]: 4 µM
SMILES: COc1ccc(C[C@H](N)C(=O)N[C@H]2[C@@H](O)[C@H](n3cnc4c(N(C)C)ncnc43)O[C@@H]2CO)cc1 [PUROMYCIN]

- IC50 [5]: 1.27 µM
- Ki [4]: 4 µM
SMILES: CN(C)c1ncnc2c1ncn2[C@@H]1O[C@H](CO)[C@@H](NC(=O)[C@@H](N)CCS(C)(=O)=O)[C@H]1O

- MIC (Helicobacter pylori [6]): 0.00078 µg/mL (≈ 0.00159 µM)
- MIC (Helicobacter pylori [7]): 0.00313 µg/mL (≈ 0.00638 µM)
SMILES: NC(=O)Cc1csc(SC2=C(C(=O)O)N3C(=O)[C@@H](NC(=O)Cc4ccccc4)[C@H]3SC2)n1

- Kd [8]: < 0.05 µM
SMILES: CCCCSC[C@H]1CN(Cc2c[nH]c3c(N)ncnc23)C[C@@H]1O

- IC50 [9]: 1.1 µM
SMILES: CN(O)C(=O)CC(O)c1cccc(Cl)c1 (centres undefined)

- IC50 [10]: 0.8 µM
SMILES: O=C(Cn1cc(/N=N/c2cccnc2)c2ccccc21)Nc1ccc2ccccc2c1

- MIC50 (Helicobacter pylori [2]): 0.3 µM (≈ 0.0781 µg/mL)
- MIC90 (Helicobacter pylori [2]): 0.39 µM (≈ 0.101 µg/mL)
SMILES: COC1=CC(=O)c2c(cc(C)c(C(C)=O)c2O)C1=O

- MIC50 (Helicobacter pylori [1]): 2 µg/mL (≈ 5.43 µM)
SMILES: CC1=C(/C=N/Nc2nc(-c3cccc([N+](=O)[O-])c3)cs2)C(C)(C)CC=C1

- MIC (Helicobacter pylori [13]): 200 µM (≈ 51.7 µg/mL)
- MIC (Helicobacter pylori [14]): 200 µM (≈ 51.7 µg/mL)
SMILES: CCOc1ccc2nc(S(N)(=O)=O)sc2c1 [ETHOXZOLAMIDE]

- IC50 [5]: 1.27 µM
SMILES: Clc1ccc(Cn2cc(COc3cccc4ccccc34)nn2)cc1Cl

- MIC (Helicobacter pylori [17]): 50 µg/mL (≈ 141 µM)
SMILES: COc1cc2ccc(=O)oc2cc1O[C@@H]1O[C@H](CO)[C@@H](O)[C@H](O)[C@H]1O [SCOPOLIN]

- Kd [8]: < 0.05 µM
SMILES: CCCCCCSC[C@H]1CN(Cc2c[nH]c3c(N)ncnc23)C[C@@H]1O

- IC50 (Glutamate racemase): 0.026 µM
- MIC (Helicobacter pylori [19]): 0.5 µg/mL (≈ 1 µM)
SMILES: Cn1cc(C#N)cc1-c1c2c(=O)n(C)c(=O)n(CC3CC3)c2nn1Cc1ccnc2ccc(Cl)cc12

- MIC (Helicobacter pylori [20]): 0.39 µg/mL (≈ 0.921 µM)
SMILES: Cc1ncc([N+](=O)[O-])n1CCOc1cc(O)c2c(=O)c(-c3ccc(O)cc3)coc2c1

- Kd [8]: < 0.05 µM
SMILES: CCCSC[C@H]1CN(Cc2c[nH]c3c(N)ncnc23)C[C@@H]1O

- MIC (Helicobacter pylori [17]): 50 µg/mL (≈ 260 µM)
SMILES: COc1cc2ccc(=O)oc2cc1O [SCOPOLETIN]

- MIC (Helicobacter pylori [2]): 250 µg/mL (≈ 1060 µM)
SMILES: CCCCOC(=O)/C=C/c1ccc(O)c(O)c1 [BUTYL CAFFEATE]

- IC50 [9]: 0.15 µM
- fraction unbound [22]: 0.56
SMILES: O=C(CC(O)c1cc(Cl)ccc1OCc1ccccc1)NO (centres undefined)

- IC50 [10]: 0.8 µM
SMILES: O=C(Cn1cc(/N=N/c2cccnc2)c2ccccc21)Nc1ccc(Cl)cc1

- IC50 [24]: 2.21 µM
SMILES: O=C(COc1ccc2ccccc2c1)Nc1ccc2c(c1)COC2=O

- IC50 [24]: 2.21 µM
- IC50 [5]: 1.88 µM
- inhibition (Helicobacter pylori [25]): > 70%
- inhibition [26]: 57%
SMILES: COc1ccc(-c2oc3ccccc3c(=O)c2OCC(=O)Nc2ccc3c(c2)COC3=O)cc1

- MIC (Helicobacter pylori [27]): 32 µg/mL (≈ 120 µM)
SMILES: Cn1cnc([N+](=O)[O-])c1S(=O)(=O)c1ccccc1

Second part, the molecule before the results:

SMILES: CC1=C(/C=N/N(C)C(N)=S)C(C)(C)CC=C1
- MIC90 (Helicobacter pylori [1]): 4 µM (≈ 0.949 µg/mL)

SMILES: CC[C@H]1OC(=O)[C@H](C)[C@@H](O[C@H]2C[C@@](C)(OC)[C@@H](O)[C@H](C)O2)[C@H](C)[C@@H](O[C@@H]2O[C@H](C)C[C@H](N(C)C)[C@H]2O)[C@](C)(OC)C[C@@H](C)C(=O)[C@H](C)[C@@H](O)[C@]1(C)O [CLARITHROMYCIN]
- MIC (Helicobacter pylori [2]): 0.78 µg/mL (≈ 1.04 µM)

SMILES: O=C1N/C(=N\c2cccs2)S/C1=C\c1ccc([N+](=O)[O-])o1
- MIC (Helicobacter pylori [3]): < 1.5 µg/mL

SMILES: COC1=CC(=O)c2c(c(OC)c3cc(C)oc(=O)c3c2O)C1=O
- ED50 [11]: 1.58 µg/mL (≈ 5 µM)
- MIC (Helicobacter pylori [3]): 64 µg/mL (≈ 202 µM)

SMILES: CO/N=C(/CN1CCN(c2cc3c(cc2F)c(=O)c(C(=O)O)cn3C2CC2)CC1)c1ccccc1Cl
- diameter of the inhibition zone (DIZ) (Helicobacter pylori [12]): 6 mm

SMILES: C=C(C)C(CC=C(C)C)CC1(CC=C(C)C)C(=O)C(C(CCC)CC(=O)O)=C2O[C@H](C)[C@@H](C)C(=O)C2=C1O (some centres undefined)
- MIC (Helicobacter pylori [2]): 12.5 µg/mL (≈ 23.7 µM)

SMILES: CC1=C(C=O)C(C)(C)CC=C1
- MIC50 (Helicobacter pylori [1]): 2 µg/mL (≈ 13.3 µM)

SMILES: CCCNC(=O)CSc1nnc(-c2ccc([N+](=O)[O-])o2)s1
- diameter of the inhibition zone (DIZ) (Helicobacter pylori [15]): 33 mm
- diameter of the inhibition zone (DIZ) (Helicobacter pylori [16]): 10 mm

SMILES: C=C(C)CCC(CC1(CC=C(C)C)C(=O)C(C(CCC)CC(=O)O)=C2O[C@H](C)[C@@H](C)C(=O)C2=C1O)C(=C)C (some centres undefined)
- MIC (Helicobacter pylori [2]): 50 µg/mL (≈ 94.9 µM)

SMILES: O=C(CSc1nnc(-c2ccc([N+](=O)[O-])o2)s1)c1ccccc1Cl
- zone of inhibition at 50 µg/disc (Helicobacter pylori [18]): ≥ 20 mm

SMILES: Cn1c([N+](=O)[O-])cnc1/C=C1\S/C(=N/c2cccs2)NC1=O
- MIC (Helicobacter pylori [3]): < 1.5 µg/mL

SMILES: O=c1oc2ccccc2cc1-c1csc(N/N=C/c2ccco2)n1
- MIC (Helicobacter pylori [21]): ≥ 16 µg/mL

SMILES: CC(Sc1nnc(-c2ncc([N+](=O)[O-])n2C)s1)c1ccccc1 (centres undefined)
- diameter of the inhibition zone (DIZ) (Helicobacter pylori [23]): >50 mm

SMILES: NNc1nc(-c2cc3ccccc3oc2=O)cs1
- MIC (Helicobacter pylori [21]): ≥ 16 µg/mL

SMILES: CC1=C(/C=N/NC(N)=S)C(C)(C)CC=C1
- MIC90 (Helicobacter pylori [1]): 4 µM (≈ 0.893 µg/mL)

SMILES: Cc1ncc([N+](=O)[O-])n1CCO [METRONIDAZOLE]
- MIC (Helicobacter pylori [27]): 2 µg/mL (≈ 11.7 µM)
- diameter of the inhibition zone (DIZ) (Helicobacter pylori [16]): 10 mm
- ED50 [11]: 5.4 µg/mL (≈ 31.6 µM)
- MIC (Helicobacter pylori [3]): > 254 µg/mL

SMILES: CN(CCO)CC(O)COc1cccc2c(=O)c3ccccc3oc12.Cl (centres undefined)
- IC50 (Helicobacter pylori [28]): 5 µg/mL
